From patent publication US20060069132A1, “Azolecarboxamide herbicides” (priority 2004, published 2006)
Read-outs that look alike come from different tables or passages of the source.

Columns and labels:
barnyardgrass = experiment: Test C flooded paddy test; assay type: in vivo, Echinochloa crus-galli; conditions: for pest or weed control at 62 g/ha / pest or weed control at 125 g/ha / pest or weed control at 250 g/ha / pest or weed control at 500 g/ha: Echinochloa crus-galli; for pest or weed control at 500 g/ha / Plant response rating, Barnyardgrass: 500 g ai/ha
How it was run: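 Ratings (0 = no effect, 100 = complete control) come from visual comparison with untreated plants after 12 to 14 days in the greenhouse. Treatment was postemergence at the 1- to 4-leaf stage (2–18 cm), or at the 2-leaf stage for the flooded paddy barnyardgrass.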

morningglory = experiment: Test A pre-/postemergence herbicide test; assay type: in vivo, Ipomoea spp.; conditions: for pest or weed control at 500 g/ha / pest or weed control at 2000 g/ha: Ipomoea, 240 h
How it was run: (§1)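 Greenhouse injury scoring (0–100, complete control = 100) at approximately ten days follows simultaneous pre- and postemergence application. Soil received a directed spray after seeding; seedlings of 2–10 cm at the one- to two-leaf stage were sprayed to runoff.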

velvetleaf = experiment: Test A pre-/postemergence herbicide test; assay type: in vivo, Abutilon theophrasti; conditions: for pest or weed control at 2000 g/ha / pest or weed control at 500 g/ha: Abutilon theophrasti, 240 h
How it was run: as §1

rice = experiment: Test C flooded paddy test; assay type: in vivo, Oryza sativa; conditions: for plant injury at 62 g/ha / plant injury at 125 g/ha / plant injury at 250 g/ha / plant injury at 500 g/ha: Oryza sativa; for plant injury at 500 g/ha / Plant response rating, Rice: 500 g ai/ha
How it was run: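 Postemergence sprays applied to plants 2 to 18 cm tall (1- to 4-leaf stage); paddy species grown to 2-leaf stage under flooding. After 12 to 14 days in greenhouse, visual rating versus untreated controls on 0–100 scale (0 no effect, 100 complete control).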

[1] = 62 g ai/ha, scale 0 to 100 (0 no effect, 100 complete control), read-out: Barnyardgrass plant response rating
[2] = visual rating after 12 to 14 days, scale 0 to 100 (0 no effect, 100 complete control), read-out: Plant response rating, Barnyardgrass
[3] = post-emergence, Postemergence, 2000 g ai/ha, 0 to 100 scale, 0 no effect, 100 complete control, read-out: Plant response rating, Morningglory
[4] = pre-emergence, Preemergence, 500 g ai/ha, visual rating, 0 to 100 scale (0 no effect, 100 complete control), read-out: Morningglory plant response rating
[5] = post-emergence, Postemergence, 2000 g ai/ha, 0 to 100 scale, 0 no effect, 100 complete control, read-out: Plant response rating, Velvetleaf
[6] = visual rating after 12 to 14 days, scale 0 to 100 (0 no effect, 100 complete control), read-out: Plant response rating, Rice
[7] = 62 g ai/ha, scale 0 to 100 (0 no effect, 100 complete control)
[8] = 125 g ai/ha, scale of 0 to 100, 0 is no effect, 100 is complete control
[9] = 250 g ai/ha, scale of 0 to 100, 0 is no effect, 100 is complete control
[10] = visual rating after 12 to 14 days, scale 0 to 100 (0 no effect, 100 complete control)
[11] = Postemergence, 2000 g ai/ha, 0 to 100 scale, 0 no effect, 100 complete control
[12] = Preemergence, 500 g ai/ha, visual rating, 0 to 100 scale (0 no effect, 100 complete control)
[13] = 125 g ai/ha, scale 0 to 100 (0 no effect, 100 complete control)

CCn1nc(C(C)(C)C)cc1C(=O)Nc1cccc(C(=O)NCC(F)(F)F)c1 [Compound 43, 3-(1,1-dimethylethyl)-1-ethyl-N-[3-[[(2,2,2-trifluoroethyl)amino]carbonyl]-phenyl]-1H-pyrazole-5-carboxamide]
pest or weed control at 62 g/ha (barnyardgrass; [1]): 0% | pest or weed control at 125 g/ha (barnyardgrass; 125 g ai/ha, scale of 0 to 100, 0 is no effect, 100 is complete control, read-out: Barnyardgrass plant response rating): 0% | pest or weed control at 250 g/ha (barnyardgrass; 250 g ai/ha, visual rating after 12 to 14 days, scale 0 to 100 (0 no effect, 100 complete control), read-out: Plant response rating, Barnyardgrass): 40% | pest or weed control at 500 g/ha (barnyardgrass; [2]): 50% | pest or weed control at 500 g/ha (morningglory; post-emergence, Postemergence, 500 g ai/ha, 0 to 100 scale, 0 no effect, 100 complete control, read-out: Plant response rating, Morningglory): 20% | pest or weed control at 2000 g/ha (morningglory; [3]): 30% | pest or weed control at 500 g/ha (morningglory; [4]): 10% | pest or weed control at 2000 g/ha (morningglory; pre-emergence, Preemergence, 2000 g ai/ha, 0 to 100 scale, 0 no effect, 100 complete control, read-out: Morningglory plant response rating): 40% | pest or weed control at 2000 g/ha (velvetleaf; [5]): 30% | pest or weed control at 500 g/ha (velvetleaf; pre-emergence, Preemergence, 500 g ai/ha, visual rating, 0 to 100 scale (0 no effect, 100 complete control), read-out: Velvetleaf plant response rating): 5% | pest or weed control at 2000 g/ha (velvetleaf; pre-emergence, Preemergence, 2000 g ai/ha, 0 to 100 scale, 0 no effect, 100 complete control, read-out: Velvetleaf plant response rating): 60% | plant injury at 62 g/ha (rice; 62 g ai/ha, scale 0 to 100 (0 no effect, 100 complete control), read-out: Rice plant response rating): 0% | plant injury at 125 g/ha (rice; 125 g ai/ha, scale of 0 to 100, 0 is no effect, 100 is complete control, read-out: Rice plant response rating): 0% | plant injury at 250 g/ha (rice; 250 g ai/ha, visual rating after 12 to 14 days, scale 0 to 100 (0 no effect, 100 complete control), read-out: Plant response rating, Rice): 20% | plant injury at 500 g/ha (rice; [6]): 20%

CCOC(=O)c1cccc(NC(=O)c2cc(C(C)(C)C)nn2CCF)c1 [Compound 79]
Barnyardgrass plant response rating (barnyardgrass; [7]): 10 | Barnyardgrass plant response rating (barnyardgrass; [8]): 25 | Barnyardgrass plant response rating (barnyardgrass; [9]): 25 | Plant response rating, Barnyardgrass (barnyardgrass; [10]): 80 | Plant response rating, Morningglory (morningglory; Postemergence, 500 g ai/ha, 0 to 100 scale, 0 no effect, 100 complete control): 15 | Plant response rating, Morningglory (morningglory; [11]): 25 | Morningglory plant response rating (morningglory; [12]): 20 | Morningglory plant response rating (morningglory; Preemergence, 2000 g ai/ha, 0 to 100 scale, 0 no effect, 100 complete control): 60 | Plant response rating, Velvetleaf (velvetleaf; [11]): 50 | Velvetleaf plant response rating (velvetleaf; [12]): 20 | Velvetleaf plant response rating (velvetleaf; Preemergence, 2000 g ai/ha, visual rating, 0 to 100 scale (0 no effect, 100 complete control)): 70 | Rice plant response rating (rice; [7]): 20 | Rice plant response rating (rice; [8]): 20 | Rice plant response rating (rice; [9]): 20 | Plant response rating, Rice (rice; [10]): 30

CCn1nc(C(C)(C)C)cc1C(=O)Nc1cccc(C(=O)OC)n1 [Compound 143, methyl 6-[[[3-(1,1-dimethylethyl)-1-ethyl-1H-pyrazol-5-yl]carbonyl]amino]-2-pyridinecarboxylate]
pest or weed control at 500 g/ha (morningglory; post-emergence, Postemergence, 500 g ai/ha, 0 to 100 scale, 0 no effect, 100 complete control, read-out: Morningglory plant response rating): 10% | pest or weed control at 2000 g/ha (morningglory; [3]): 25% | pest or weed control at 500 g/ha (morningglory; [4]): 0% | pest or weed control at 2000 g/ha (morningglory; pre-emergence, Preemergence, 2000 g ai/ha, visual rating, 0 to 100 scale (0 no effect, 100 complete control), read-out: Morningglory plant response rating): 0% | pest or weed control at 500 g/ha (velvetleaf; post-emergence, Postemergence, 500 g ai/ha, 0 to 100 scale, 0 no effect, 100 complete control, read-out: Velvetleaf plant response rating): 0% | pest or weed control at 2000 g/ha (velvetleaf; [5]): 15% | pest or weed control at 2000 g/ha (velvetleaf; pre-emergence, Preemergence, 2000 g ai/ha, visual rating, 0 to 100 scale (0 no effect, 100 complete control), read-out: Velvetleaf plant response rating): 0% | pest or weed control at 500 g/ha (velvetleaf; pre-emergence, preemergence, 500 g ai/ha, visual injury, 0 to 100 scale (0 no effect, 100 complete control), read-out: Velvetleaf plant response rating): 0%

CCc1nn(C(C)C)nc1C(=O)Nc1cccc(C(=O)N(C)C)c1 [Compound 358, N-[3-[(dimethylamino)carbonyl)phenyl]-5-ethyl-2-(1-methylethyl)-2H-1,2,3-triazole-4-carboxamide]
pest or weed control at 62 g/ha (barnyardgrass; [1]): 0% | pest or weed control at 125 g/ha (barnyardgrass; 125 g ai/ha, scale 0 to 100 (0 no effect, 100 complete control), read-out: Barnyardgrass plant response rating): 60% | pest or weed control at 250 g/ha (barnyardgrass; 250 g ai/ha, scale of 0 to 100, 0 is no effect, 100 is complete control, read-out: Barnyardgrass plant response rating): 75% | pest or weed control at 500 g/ha (barnyardgrass; [2]): 85% | plant injury at 62 g/ha (rice; 62 g ai/ha, scale 0 to 100, read-out: Rice plant response rating): 20% | plant injury at 125 g/ha (rice; 125 g ai/ha, scale 0 to 100 (0 no effect, 100 complete control), read-out: Rice plant response rating): 65% | plant injury at 250 g/ha (rice; 250 g ai/ha, scale of 0 to 100, 0 is no effect, 100 is complete control, read-out: Rice plant response rating): 70% | plant injury at 500 g/ha (rice; [6]): 85%

C#CCNC(=O)c1cccc(NC(=O)c2nn(C(C)(C)C)nc2CC)c1 [Compound 380]
Barnyardgrass plant response rating (barnyardgrass; [7]): 35 | Barnyardgrass plant response rating (barnyardgrass; [13]): 45 | Barnyardgrass plant response rating (barnyardgrass; [9]): 65 | Plant response rating, Barnyardgrass (barnyardgrass; [10]): 70 | Rice plant response rating (rice; 62 g ai/ha, scale 0 to 100): 45 | Rice plant response rating (rice; [13]): 65 | Rice plant response rating (rice; [9]): 70 | Plant response rating, Rice (rice; [10]): 75

C#CCOc1cccc(NC(=O)c2cc(C(C)(C)C)nn2CC)c1 [Compound 411]
Barnyardgrass plant response rating (barnyardgrass; [7]): 15 | Barnyardgrass plant response rating (barnyardgrass; [13]): 25 | Barnyardgrass plant response rating (barnyardgrass; [9]): 40 | Plant response rating, Barnyardgrass (barnyardgrass; [10]): 45 | Rice plant response rating (rice; 62 g ai/ha, scale 0 to 100): 0 | Rice plant response rating (rice; [13]): 25 | Rice plant response rating (rice; [9]): 35 | Plant response rating, Rice (rice; [10]): 35

C=CCOc1cccc(NC(=O)c2cc(C(C)(C)C)nn2CC)c1 [Compound 412]
Barnyardgrass plant response rating (barnyardgrass; [7]): 0 | Barnyardgrass plant response rating (barnyardgrass; [13]): 20 | Barnyardgrass plant response rating (barnyardgrass; [9]): 35 | Plant response rating, Barnyardgrass (barnyardgrass; [10]): 45 | Rice plant response rating (rice; 62 g ai/ha, scale 0 to 100): 15 | Rice plant response rating (rice; [13]): 20 | Rice plant response rating (rice; [9]): 20 | Plant response rating, Rice (rice; [10]): 50
